According to ChEMBL document CHEMBL5465560, “Selectivity Literature for EUbOPEN Chemogenomic Library” (2024):
One block for each compound: values may come before it.

Legend:
[1] = target: STE20-like serine/threonine-protein kinase (Homo sapiens, UniProt Q9H2G2); test: Selectivity interaction (ProQinase) EUB0000171b SLK
[2] = target: T1, Protein kinase C epsilon type (Homo sapiens) (UniProt Q02156); test: Selectivity interaction (KinomeScan (DiscoverX)) EUB0000045b PRKCE
T1 sequence (whole entry): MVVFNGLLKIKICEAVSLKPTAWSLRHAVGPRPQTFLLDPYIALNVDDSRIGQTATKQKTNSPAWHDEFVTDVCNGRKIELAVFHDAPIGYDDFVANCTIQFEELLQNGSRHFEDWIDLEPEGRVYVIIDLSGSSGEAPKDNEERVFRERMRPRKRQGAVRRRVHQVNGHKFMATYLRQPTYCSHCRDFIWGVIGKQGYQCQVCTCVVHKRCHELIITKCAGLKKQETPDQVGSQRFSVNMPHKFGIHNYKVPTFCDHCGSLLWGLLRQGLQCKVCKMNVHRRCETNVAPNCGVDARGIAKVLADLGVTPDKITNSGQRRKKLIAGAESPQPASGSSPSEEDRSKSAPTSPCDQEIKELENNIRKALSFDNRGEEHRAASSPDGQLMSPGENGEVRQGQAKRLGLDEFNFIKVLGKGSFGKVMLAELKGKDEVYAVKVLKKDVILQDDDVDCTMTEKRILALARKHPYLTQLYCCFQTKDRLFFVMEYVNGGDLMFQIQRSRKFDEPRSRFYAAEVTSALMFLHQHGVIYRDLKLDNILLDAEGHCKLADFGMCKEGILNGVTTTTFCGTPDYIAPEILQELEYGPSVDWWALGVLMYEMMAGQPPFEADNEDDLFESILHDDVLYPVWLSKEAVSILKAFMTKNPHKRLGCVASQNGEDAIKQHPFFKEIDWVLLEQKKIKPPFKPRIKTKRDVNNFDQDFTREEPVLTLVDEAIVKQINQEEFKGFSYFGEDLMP

[3] = target: T2, Tyrosine-protein kinase ZAP-70 (Homo sapiens) (UniProt P43403); test: Selectivity interaction (ActivX KiNativ screen (ex vivo kinase selectivity in human PBMCs)) EUB0001619a ZAP70; assay type: cell-based; details: PBMC, at 1 µM
T2 sequence (whole entry): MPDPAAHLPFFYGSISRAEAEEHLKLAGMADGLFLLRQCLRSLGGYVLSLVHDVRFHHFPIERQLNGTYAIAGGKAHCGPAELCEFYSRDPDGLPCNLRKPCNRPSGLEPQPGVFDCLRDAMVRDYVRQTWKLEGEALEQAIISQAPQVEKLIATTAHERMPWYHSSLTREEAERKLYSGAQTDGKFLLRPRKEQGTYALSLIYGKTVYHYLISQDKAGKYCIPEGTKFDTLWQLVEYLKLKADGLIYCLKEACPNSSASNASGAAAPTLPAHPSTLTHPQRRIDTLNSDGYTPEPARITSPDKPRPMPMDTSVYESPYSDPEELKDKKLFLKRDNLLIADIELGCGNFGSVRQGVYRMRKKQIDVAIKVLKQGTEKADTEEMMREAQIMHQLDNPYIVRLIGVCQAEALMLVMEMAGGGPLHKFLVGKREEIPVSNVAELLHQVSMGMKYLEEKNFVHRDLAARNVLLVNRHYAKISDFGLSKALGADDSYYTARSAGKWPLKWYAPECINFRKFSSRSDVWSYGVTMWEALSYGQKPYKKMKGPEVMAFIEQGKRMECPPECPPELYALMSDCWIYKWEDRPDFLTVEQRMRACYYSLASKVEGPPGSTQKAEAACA

[4] = target: T3, Discoidin domain-containing receptor 2 (Homo sapiens) (UniProt Q16832); test: Selectivity interaction (KinomeScan (DiscoverX)) EUB0000666a DDR2; details: at 10 µM
T3 sequence (whole entry): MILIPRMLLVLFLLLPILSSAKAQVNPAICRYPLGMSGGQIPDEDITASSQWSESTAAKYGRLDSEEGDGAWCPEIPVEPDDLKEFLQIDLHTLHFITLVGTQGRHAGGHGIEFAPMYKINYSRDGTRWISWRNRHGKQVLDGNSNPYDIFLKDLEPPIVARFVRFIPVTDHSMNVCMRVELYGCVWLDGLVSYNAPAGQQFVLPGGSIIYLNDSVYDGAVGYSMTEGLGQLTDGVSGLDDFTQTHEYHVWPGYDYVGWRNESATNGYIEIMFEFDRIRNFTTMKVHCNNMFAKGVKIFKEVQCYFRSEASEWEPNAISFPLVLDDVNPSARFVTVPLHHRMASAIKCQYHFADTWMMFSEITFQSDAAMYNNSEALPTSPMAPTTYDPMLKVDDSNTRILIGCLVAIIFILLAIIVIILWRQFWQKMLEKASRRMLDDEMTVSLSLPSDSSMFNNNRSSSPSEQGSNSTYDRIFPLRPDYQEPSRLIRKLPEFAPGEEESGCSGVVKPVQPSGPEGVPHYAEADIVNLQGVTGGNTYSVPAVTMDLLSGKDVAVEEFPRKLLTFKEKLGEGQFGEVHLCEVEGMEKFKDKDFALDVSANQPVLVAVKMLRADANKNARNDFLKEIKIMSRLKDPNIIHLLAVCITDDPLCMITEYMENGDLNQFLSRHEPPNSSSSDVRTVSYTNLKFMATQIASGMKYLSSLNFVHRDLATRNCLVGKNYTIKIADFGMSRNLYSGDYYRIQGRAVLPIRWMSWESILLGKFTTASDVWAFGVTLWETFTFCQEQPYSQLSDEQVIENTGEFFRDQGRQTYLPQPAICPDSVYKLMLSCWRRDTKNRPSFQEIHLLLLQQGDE

Sequence of STE20-like serine/threonine-protein kinase (Q9H2G2 whole entry, looked up): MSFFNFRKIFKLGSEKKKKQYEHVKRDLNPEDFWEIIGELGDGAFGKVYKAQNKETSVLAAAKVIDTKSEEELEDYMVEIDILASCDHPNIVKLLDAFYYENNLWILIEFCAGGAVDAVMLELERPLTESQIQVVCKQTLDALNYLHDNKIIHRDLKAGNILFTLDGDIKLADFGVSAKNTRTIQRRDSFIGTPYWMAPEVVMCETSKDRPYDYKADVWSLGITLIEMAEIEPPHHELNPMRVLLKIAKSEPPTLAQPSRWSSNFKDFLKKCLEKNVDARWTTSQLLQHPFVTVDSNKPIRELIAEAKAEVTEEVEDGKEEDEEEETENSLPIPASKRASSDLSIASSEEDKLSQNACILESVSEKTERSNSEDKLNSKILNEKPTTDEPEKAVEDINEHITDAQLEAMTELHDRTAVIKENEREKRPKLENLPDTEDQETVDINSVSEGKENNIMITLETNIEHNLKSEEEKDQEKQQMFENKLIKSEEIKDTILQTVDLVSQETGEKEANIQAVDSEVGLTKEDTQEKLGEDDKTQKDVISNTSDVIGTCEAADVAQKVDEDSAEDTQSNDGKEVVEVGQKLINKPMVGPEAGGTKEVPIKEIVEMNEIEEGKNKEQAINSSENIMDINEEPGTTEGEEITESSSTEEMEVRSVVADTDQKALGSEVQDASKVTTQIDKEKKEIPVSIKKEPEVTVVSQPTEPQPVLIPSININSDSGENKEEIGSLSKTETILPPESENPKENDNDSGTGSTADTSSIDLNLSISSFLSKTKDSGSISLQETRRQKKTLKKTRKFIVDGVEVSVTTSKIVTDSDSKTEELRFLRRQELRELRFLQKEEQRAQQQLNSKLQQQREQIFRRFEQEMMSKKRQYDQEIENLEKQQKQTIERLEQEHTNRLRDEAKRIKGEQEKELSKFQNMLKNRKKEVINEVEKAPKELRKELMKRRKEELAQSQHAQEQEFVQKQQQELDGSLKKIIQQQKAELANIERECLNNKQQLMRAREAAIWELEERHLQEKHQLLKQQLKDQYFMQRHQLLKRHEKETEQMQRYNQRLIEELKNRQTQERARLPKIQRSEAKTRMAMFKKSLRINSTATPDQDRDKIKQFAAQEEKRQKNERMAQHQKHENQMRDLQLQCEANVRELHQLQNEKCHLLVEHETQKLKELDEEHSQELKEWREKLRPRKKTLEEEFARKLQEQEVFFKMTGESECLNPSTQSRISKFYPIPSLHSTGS

% of control ([1]; at 1 µM): 102%
% of control ([1]; at 5 µM): 76%
SMILES: C=CC(=O)Nc1cccc(C(=O)Nc2ccc(Nc3cc(-c4[nH]c(SC)nc4C)ccn3)cc2)c1

SMILES: C=CC(=O)Nc1cc(-n2c(=O)ccc3cnc4ccc(-c5ccc(NS(C)(=O)=O)cc5)cc4c32)ccc1C
% of control ([2]; at 1 µM): 100%
% of control ([2]; at 10 µM): 75%

SMILES: N#Cc1cccc(-c2c[nH]c3ncnc(N4CCOCC4)c23)c1
% of inhibition [3]: 7%

SMILES: O=C(NOC[C@H](O)CO)c1ccc(F)c(F)c1Nc1ccc(I)cc1F
% of control [4]: 100%
